Patent US9315544B2, “Method of treating eosinophilia by administering an immunomodulating peptide” (National Tsing Hua University, priority 2012, dated 2016)

Tests used:
Type in all cases: in vivo, BALB/c mouse
goblet cell hyperplasia = assay: Lung histopathology (PAS), goblet cell hyperplasia score; settings: eIN+mIT+eIN group (CMP days 1 to 22)
Description: (§1) FIG. 4 illustrates experimental design. All groups except control group were immunized with mite crude extract allergen on days 1 and 8, then mite crude extract allergen intratracheally on day 15 in all mite treated group, BALB/c mouse were divided into six groups (1) control group (PBS), (2) mites delivered intratracheally (mIT, mite on day 15) alone, (3) CMP intranasal (eIN, CMP on days 1 to 22) alone, (4) preventive-treatment group (eIN+mIT, CMP on days 1 to 14, mite on day 15) (5) therapy-treatment group (mIT+eIN, mite on day 15, CMP on days 15 to 22), and (6) preventive- and therapeutic-treatment group (eIN+mIT+eIN, CMP on days 1 to 22, mite on day 15).
FIG. 6A-6B illustrates inhibitory effect of CMP on influx of inflammatory cells. […] (A) Scores for peri-bronchiolar, alveolar inflammation and (B) PAS were determined based on the histological sections. Each result was expressed as the mean±S.D., n=4. ***, P<0.001. […]
The formalin-fixed lung sections stained with hematoxylin and eosin (H&E) were assigned a unit value for alveolar, peri-bronchiolar, and total inflammation by computing the means of three independent scores for three randomly selected fields. […] For evaluating the hyperplasia goblet cells, medium-sized airways were assessed in sections stained with periodic acid-Schiff (PAS) stain. Two reviewers independently and randomly scored 10 fields of each slide. […]

IL-17A/F = assay: Cytokine ELISA of lung protein extract (IL-17A/F); settings: eIN+mIT, mIT+eIN and eIN+mIT+eIN groups
Description: as §1
(§2) FIG. 9 illustrates inhibitory effect of CMP on lung protein extract. Lung protein extracts from different groups of mouse were assayed for the indicated cytokines. Data represent one of three independent experiments. Levels of CCL-11, IL-5, IL-13 and IL-17A/F levels in lung protein extracts from mouse from treatment groups were measured by Enzyme-linked immunosorbent assay (ELISA). Each result was expressed as the mean±S.D., n=4. **, P<0.01, ***, P<0.001. […]
(§3) Levels of cytokines from lung protein extract were measured by ELISA. […] The microplates were read at 450 nm with an ELISA reader (Thermo Labsystems, Waltham, Mass., USA). […]

CCL-11 = assay: Cytokine ELISA of lung protein extract (CCL-11); settings: eIN+mIT, mIT+eIN and eIN+mIT+eIN groups
Description: as §1, §2, §3

## NYRWRCKNQN (CMP)
Goblet cell hyperplasia
  score of goblet cell hyperplasia compared with mIT group: lower score
IL-17A/F
  IL-17A/F levels in lung protein extract compared with mIT group: much lower
CCL-11
  CCL-11 in lung protein extract compared with mIT group: lower concentrations
